Assay: gradient 5% acetonitrile 3 min, to 50% in 2 min, to 85% in 15 min, held 3 min, 100 µL/min
Conditions: column: Zorbax Extend-C18 2.1 x 50 mm; eluents: water / acetonitrile, 0.1% formic acid
Method in brief: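 Mixtures of ~100 pure standards were chromatographed on a Zorbax Extend-C18 column (2.1 × 50 mm, 1.8 μm) at 100 μL/min using water and acetonitrile, each with 0.1% formic acid. Detection used a quadrupole time-of-flight mass spectrometer in positive and negative ionization mode, and data collection spanned 3 months. Retention time was obtained from adduct peaks picked computationally and each checked manually.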

Row | Structure (SMILES) | RP-LC retention time [s]
1 | Cn1c(CNc2nc3ccncc3n(Cc3ccccc3)c2=O)nc2ccccc21 | 571
2 | CCCC(C)C(=O)N1CCCN(C2=NS(=O)(=O)C(c3ccc(CC)cc3)=C2C)CC1 (stereo not drawn) | 935
3 | COc1cccc(CC(=O)N2CCC(C(=O)NCc3csc(-c4cccs4)n3)CC2)c1 | 774
4 | COCC(=O)N1CC2CN(S(=O)(=O)c3cccc(F)c3)CC(C1)O2 | 660
5 | COCCN1CC2CN(C(=O)Nc3ccc4c(c3)OCCO4)CC(C1)O2 | 580
6 | COc1cccc(-c2ccc3nc(N4CCC(C(=O)NC(C)C)CC4)sc3n2)c1 | 895
7 | O=C(c1ccc(F)cc1F)N1CCC2(CC1)OCC(C(=O)N1CCCC1)N2C(=O)c1ccccc1 (stereo not drawn) | 698
8 | CN1C(C(=O)Nc2ccccn2)=C(O)c2sc(Cl)cc2S1(=O)=O | 793
9 | Cn1nc(-c2nnc(-c3ccc(F)cc3)o2)c2c1CCN(S(=O)(=O)c1ccc(C#N)cc1)C2 | 894
10 | CCn1ncn2cc(S(=O)(=O)Nc3ccc(C)c(F)c3)cc2c1=O | 909
11 | Cc1c(F)cccc1NC(=O)N1CCCC1c1nncn1-c1ccccc1 (stereo not drawn) | 744
12 | COCCn1cc(CCNC(=O)Nc2cc(C)cc(C)c2)c2cccnc21 | 776
13 | Cc1nn2c(-n3ccnc3C)c3c(nc2c1-c1ccccc1)CCC3 | 606
14 | CCNC(=O)C1CCCN(c2nc3ncn(CC(=O)Nc4ccc(F)c(F)c4)c(=O)c3s2)C1 (stereo not drawn) | 670
15 | Cc1cc(Cl)ccc1NC(=O)N1CCC(c2nc3ccncc3n2C(C)C)C1 (stereo not drawn) | 648
16 | COc1ccccc1N1CCN(CC(=O)NC2CCSC2=O)C1=O (stereo not drawn) | 621
17 | COCC1CN(S(=O)(=O)Cc2ccc(C)c(C)c2)CC12CCNCC2 (stereo not drawn) | 654
18 | CCOC(=O)c1c(C)[nH]c(C(=O)N2CCCC(C(=O)NCCCN3CCCCCC3)C2)c1C (stereo not drawn) | 624
19 | COc1ccc(-c2noc(C3CCCN3C(=O)Nc3ccccc3Cl)n2)cc1 (stereo not drawn) | 920
20 | COc1ccc(CC(=O)N2CCc3cc(-c4ccno4)ccc32)cc1Cl | 1000
21 | CN(C)C(=O)c1ccc2c(c1)nnn2CCNC(=O)Nc1ccc(Cl)cc1 | 678
22 | CCCCN1CCN(C(=O)C2=NN(c3ccc(C)cc3)c3ncccc3S2(=O)=O)CC1 | 685
23 | N#Cc1c(NC(=O)C2Cc3ccccc3C(=O)O2)sc2c1CCCC2 (stereo not drawn) | 663

Row | Structure (SMILES) | RP-LC retention time [s]
24 | CN(C)c1ccc2c(c1)OC(N)=C(C#N)C2c1cccc(C(F)(F)F)c1 (stereo not drawn) | 1020
25 | O=C(Nc1ccc2c(c1)OCCO2)c1cc2c(s1)CN(C1CCCC1)C2 | 621
26 | CCc1ccc2[nH]c3c(c(=O)c2c1)CN(CC(=O)Nc1cccc(C#N)c1)CC3 | 626
27 | CCn1cc(C)c(C(=O)O)c1CC(=O)NCCCN1CCOCC1 | 588
28 | Cc1ccc(-c2cc3c4nn(CC(=O)NC5CCCC5)c(=O)n4ccn3n2)cc1C | 918
29 | CN(CC1CCOCC1)C(=O)Nc1cccc(C(F)(F)F)c1 | 816
30 | O=C(CSc1ncn[nH]1)Nc1ccc2c(c1)OCCO2 | 591
31 | Cc1csc(CN2CCN(C(=O)CC(c3ccccc3)c3ccccc3)CC2)n1 | 665
32 | CN(C)CCCn1c(C2CC(=O)N(c3ccccc3F)C2)nc2ccccc21 (stereo not drawn) | 580
33 | O=S(=O)(NCC(O)(c1ccccc1)C(F)(F)F)c1ccc(F)c(Cl)c1 (stereo not drawn) | 922
34 | O=C(Nc1ccccc1)N1CCC2(CC1)CC(N1CCOCC1)CCO2 (stereo not drawn) | 583
35 | Cc1ccc(Sc2nccnc2N2CCCC(C(=O)NCCCc3ccccc3)C2)cc1 (stereo not drawn) | 1210
36 | CS(=O)(=O)N1CCCc2cc(C(=O)NCc3cccnc3)ccc21 | 574
37 | CCc1nccn1Cc1nc(-c2ccc(Br)cc2)no1 | 677
38 | CS(=O)(=O)N1CCC(C(=O)N2CC(c3nc(-c4ccccn4)no3)C2)CC1 | 579
39 | Cc1nc(-c2cc(S(=O)(=O)N3CCN(c4cccc(Cl)c4)CC3)c(C)s2)cs1 | 1270
40 | O=C(NCCCn1cccn1)c1cn2ccccc2n1 | 570
41 | Cc1ccc2c(c1)N(C(=O)Cn1c(=O)n(C3CC3)c(=O)c3nscc31)CCO2 | 773
42 | Fc1cccc(-c2noc(-c3cc(N4CCOCC4)nc4ccccc34)n2)c1 | 1240
43 | Nc1ncnc(N2CCN(c3ccc(Cl)c(Cl)c3)CC2)c1[N+](=O)[O-] | 909
44 | Cc1cc(C(=O)Nc2nnc(-c3ccn(C)n3)o2)c(C)o1 | 617
45 | COc1ccccc1NC(=O)C1CC(=O)N(CCc2c[nH]c3ccc(Cl)cc23)C1 (stereo not drawn) | 829
46 | COc1ccc2[nH]c(=O)c(CCC(=O)N(C)CCc3ccccn3)cc2c1 | 578

Row | Structure (SMILES) | RP-LC retention time [s]
47 | COc1cccc(S(=O)(=O)N2CCC(Cc3nncn3C)C2)c1 (stereo not drawn) | 630
48 | CS(=O)(=O)N1CCC(C(=O)Nc2ccc(F)c(Cl)c2)Oc2ccccc21 (stereo not drawn) | 986
49 | O=C(Nc1cnc(-c2cccc(Cl)c2)nc1)c1nccc2ccccc12 | 1370
50 | Cc1cc2c(cc1S(=O)(=O)N1CCCC1C(=O)NC1CCCCCC1)OC(C)C(=O)N2 (stereo not drawn) | 834
51 | CCc1nn2c(CNC(=O)c3cccn3C)c(-c3ccccc3)nc2s1 | 882
52 | CC(=O)N1CCc2cc(C)c(S(=O)(=O)Nc3cccc(F)c3)cc21 | 731
53 | COc1ccc(S(=O)(=O)N2CCCOC2CNC(=O)C(=O)NC2CCCCC2)cc1 (stereo not drawn) | 822
54 | O=C(C1CCN(S(=O)(=O)c2ccc3[nH]c4c(c3c2)CCCCC4)CC1)N1CCCC1 | 906
55 | COCC1(O)CCOC2(CCN(C(=O)C3CCCCC3)CC2)C1 (stereo not drawn) | 656
56 | CCCn1c2ccccc2c2nnc(SC(CC)C(=O)Nc3nc(-c4ccccc4)cs3)nc21 (stereo not drawn) | 1230
57 | CC(=O)Nc1ccc(NC(=O)c2cc3sc(C)c(CN4CCCCC4)c3[nH]2)cc1 | 609
58 | CCc1ccc(S(=O)(=O)NCCc2sc(C)nc2C)s1 | 647
59 | Cc1ccc(C)c(NC(=O)c2cnn3c2CCCC3)c1 | 777
60 | COc1ccc(Cl)cc1C(=O)N1CCN(c2ccc(-c3nc(C)c(C)s3)cn2)CC1 | 956
61 | Cc1nnc(SCC(=O)NCCc2ccccc2)s1 | 650
62 | CC1(C(=O)NCc2ccc(F)cc2)CCCN(C(=O)Nc2cccc(Cl)c2)C1 (stereo not drawn) | 967
63 | O=C(Cn1ccn2nc(-c3ccccc3)c(CO)c2c1=O)Nc1ccc2c(c1)CCC2 | 906
64 | Nc1ccc(Br)cc1Br | 1000
65 | Fc1ccc(-c2nnc(Cc3nc(-c4cccc(Cl)c4)no3)o2)cc1 | 1070
66 | COc1ccccc1NC1=NS(=O)(=O)c2ccccc21 | 769
67 | CCOc1ccc(C2Cn3nnc(-c4nc(-c5ccccc5OCC)no4)c3CO2)cc1 (stereo not drawn) | 1200
68 | CN(Cc1ccccc1)C(=O)c1cn2ccncc2n1 | 678

Reference: the METLIN SMRT retention time set (Domingo-Almenara et al. 2019)
